1 compound from BindingDB's records for doi:10.1016/j.bmcl.2003.09.092 (Virginia Commonwealth University, 2003) can be followed below.

Usually Ki stands for the equilibrium dissociation constant of an inhibitor or competing ligand from its target. Higher therefore signals a looser hold on the target.

The assay in a line: Binding affinity for rat imidazoline receptor I-1 from crude P2 membranes.

Take `C(=C\c1ccccc1)/C1=NCCN1` [2-((E)-Styryl)-4,5-dihydro-1H-imidazole]: the affinity, expressed as Ki, was 10 nM. In other words, the double-digit nanomolar range.
